Measurements from US20140038205A1, “METHODS AND COMPOSITIONS RELATING TO COAGULATION ASSAYS” (Precision BioLogic Inc., priority 2011, published 2014).

Experiments:
[1] = system: unfractionated heparin (UFH); assay: aPTT assay, neutralization of heparin in heparinized plasma; assay type: biochemical; conditions: plasma containing up to 2 U/mL of UFH; FIG. 1 and FIG. 4
From the text: PF4 tetramers form a cylindrical structure displaying an equatorial ring of positively charged amino acids around which the polyanionic heparin molecules wrap and bind with exceptionally high affinity. The formation of a PF4-heparin complex strongly impairs the capacity of heparin to bind AT and stimulate its anticoagulant activity.
(§1) In the aPTT (also referred to as “partial thromboplastin time” or “PTT”) assay, the sample is then mixed with a phospholipid, an activator such as silica, celite, kaolin or ellagic acid, and calcium. The contact activator is used to stimulate production of Factor XIIa. The phospholipids form complexes that activate Factor X and prothrombin. Calcium is used to reverse the anticoagulant effects of the oxalate or citrate. The mixture is then allowed to form a thrombus (clot) and the time to do so is measured. An abnormal or prolonged aPTT time will vary depending on the population and local normal ranges should be known. However, as a general guideline, values over 39 seconds may be considered abnormal and prolonged according to the invention, and such samples may be candidates for further analysis using the methods of the invention.
The PF4-based reagent may be used for the in vitro neutralization of heparin in samples as assessed by the aPTT assay. […]

[2] = system: non-heparinized plasma; assay: aPTT assay of non-heparinized plasma; assay type: biochemical; conditions: FIG. 2 and FIG. 3
From the text: as §1
The PF4-based reagent may be used for the in vitro neutralization of heparin in samples as assessed by the aPTT assay. To ensure an accurate aPTT result the reagent must act specifically to reverse only anticoagulant activity associated with heparin, and otherwise have no effect on the plasma clotting time. […] This phenomenon might be due to PF4-induced stimulation of the thrombin-mediated cleavage of protein C to generate the potent anticoagulant activated protein C (APC). APC acts to inactivate coagulation Factors Va and VIIIa by proteolysis. […]

[3] = biological target: T1, PF4 (Homo sapiens, UniProt P02776); conditions: rank: heparin>heparan sulfate>dermatan sulfate>chondroitin-6-sulfate>chondroitin-4-sulfate; cited from earlier work
T1 sequence (P02776 32-101): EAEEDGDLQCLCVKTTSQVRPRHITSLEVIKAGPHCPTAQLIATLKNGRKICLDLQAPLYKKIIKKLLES

[4] = relative to heparin; cited from earlier work

Row | Substance | neutralization of heparin anticoagulant activity (aPTT) [1] | effect on the aPTT of non-heparinized plasma [2] | relative binding affinity for PF4 [3] | anti-coagulant potency [4]
1 | platelet factor 4 [PF4] | fully corrected to baseline | gradual prolongation of the aPTT | – | –
2 | chondroitin-4-sulfate | – | – | low relative affinity for PF4 | much lower than that of heparin
